Measurements: patent publication US20230406840A1, “N-(2-(3-CYANO-2-AZABICYCLO[3.1.0]HEXAN-2-YL)-2-OXOETHYL)QUINOLINE-4-CARBOXAMIDES” (AstraZeneca AB, priority 2022, published 2023)
In brackets after ≈: the same amount, converted by molar mass.

Key:
[1] = target: FAP enzyme activity in mouse plasma (Mus musculus (Mouse), UniProt P97321); experiment: FAP target engagement enzyme activity in mouse plasma after oral dosing; settings: male C57Bl/6 mice, single oral dose 3 or 10 mg/kg; estimated from plasma exposure vs FAP activity, Imax fixed to 1; read-out: In vivo Mouse IC50
Experimental: The effect of test compound on FAP enzyme activity in mouse plasma was evaluated in an enzymatic assay using the Fibroblast Activation Protein alpha (FAP) specific fluorogenic substrate dipeptide-Coumarin, Ala-Pro-AMC, (ARI-3144). In this assay, FAP cleaves Ala-Pro-AMC to release free AMC which is measured as a fluorescent signal that correlates with enzyme activity.
Male C57Bl/6 mice (Charles River, Germany), 8 weeks of age, were single housed in a temperature-controlled room with a 12-hour light/dark cycle (06:00-18:00 light). The mice had ad libitum access to water and rodent chow diet (R70, Lactamin, Kimstad, Sweden), and were acclimated for 5 days upon arrival. After acclimation, all mice received a single oral dose of test compound (3 or 10 mg/kg). Blood samples for whole blood compound exposure measurements were taken at 0.25, 0.5, 1, 2, 4, 8 and 24 h post oral dosing. Samples were collected in EDTA capillary tubes (20 μL, K2E, REF 19.447) and were transferred to a 96-deep well plate (NUNC, Thermo Discher Scientific) and stored at −20° C. until further analyses were performed. […]
Recombinant human FAP (PB-17-1837, construct PL-17-0278, cd33-FAP (27-757)-6His, Mw85926 Da) was used as a standard for this assay. […] The plates were read on a Beckman Paradigm reader with excitation 360 nm and emission 465 nm. Fluorescence measurements were performed with kinetic read every 5 minutes for 60 min at room temperature. Data were analyzed in Excel (IDBS XLfit Add-In) using a Linear Regression (y=k*x+m) model to prepare a human recombinant FAP standard curve.
On the day of the assay, plasma was diluted (1:2) to 20 μL volume in buffer (PBS, 0.1% BSA) and 7.5 μL was transferred to the assay plate (384-well black, fluotrack PS, Greiner 781076). […] The plates were read on a Beckman Paradigm reader with excitation 360 nm and emission 465 nm. Fluorescence measurements were performed with kinetic read every 5 minutes for 60 minutes at room temperature. As noted above, FAP cleaves Ala-Pro-AMC to release free AMC which is measured as a fluorescent signal. […]

[2] = target: Prolyl Oligopeptidase (hPREP) (Homo sapiens (Human), UniProt P48147); experiment: hPREP inhibition assay; format: biochemical; settings: hPREP 0.6 nM, Z-Gly-Pro-amino-methylcoumarin 50 μM; read-out: PREP IC50
Outline: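 Recombinant human PREP at 0.6 nM final, with Z-Gly-Pro-AMC substrate at 50 μM final. Buffer: 25 mM Tris HCl pH 7.5, 250 mM NaCl, 0.01% Triton X-100, 5 mM glutathione. Incubated 20 min at rt in the dark; fluorogenic AMC release read.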

Kinetic solubility = format: physicochemical; settings: kinetic from dmso stock
Experimental: Kinetic solubility was measured as described in Comput Aided Mol Des 2015, 29, 795.

Rat Hepatocytes (rHep) = experiment: Metabolic stability in rat hepatocytes (rHep); format: in vitro ADME
Experimental: Metabolic stability in rat hepatocytes was measured as described in J Comput Aided Mol Des 2015, 29, 795.

[3] = Caco-2 bidirectional (ABBA) permeability; format: in vitro ADME; settings: human; for Papp A→B: A to B, read-out: Caco2 Bidirectional (ABBA) A to B Papp; for Papp B→A: B to A, read-out: Caco2 Bidirectional (ABBA) B to A Papp; for efflux ratio: read-out: Caco2 Bidirectional (ABBA) Efflux Ratio
Experimental: (§1) Caco-2 cell permeability was measured as described in Mol/Pharm 2017, 14, 1601.

[4] = target: human Fibroblast activation protein alpha (hFAP) (Homo sapiens (Human), UniProt Q12884); experiment: hFAP inhibition assay (tight binders); format: biochemical; settings: tight-binder format, Ala-Pro-AMC 20 μM, 2.5 h incubation; n = 1 or geometric mean (n = 5-10)
Experimental: Data were analyzed in Genedata Screener®.

hFAP = hFAP (Homo sapiens (Human), UniProt Q12884);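 further: fluorescence read after incubating enzyme with substrate at room temperature, IC50 fitted from percent inhibition against log concentration with a one-site model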
Experimental: Compounds were tested in a biochemical inhibition assay using hFAP enzyme at 0.24 nM FAC (Proteros, 38-760 (PR-0071)) and the substrate Ala-Pro-AMC (ARI-3144) at 20 μM FAC. 384 low volume black plates (Greiner #784076) were used. 4 μL, 0.48 nM enzyme solution (100 mM Tris HCl, 100 mM NaCl, 0.05% Chaps, pH 7.4) was added to 40 nL compounds (in DMSO) at 10 CR, 3-fold dilution series from 50 μM FAC. Plates were incubated for 15 min at rt in dark. 4 μL, 40 μM substrate solution (100 mM Tris HCl, 100 mM NaCl, 0.05% Chaps, pH 7.4) was added to each well. Plates were centrifuged at 1000 rpm and incubated for 30 min at rt in dark. The plates were read on a PHERAstar® reader with excitation 340 nm and emission 460 nm. Data were analyzed in Genedata Screener®. IC50 values were determined by plotting % inhibition versus log compound concentration and using a one site dose response model.

[5] = Caco-2 AB intrinsic permeability; format: in vitro ADME; settings: human, A to B, read-out: Caco2 AB Intrinsic Papp
Experimental: as §1

Human Hepatocytes (hHep) = experiment: Metabolic stability in human hepatocytes (hHep); format: in vitro ADME
Experimental: Metabolic stability in human hepatocytes was measured as described in Xenobiotica 2010, 40, 637.

FAP enzyme activity in mouse plasma, sequence (P97321 24-761 limits assumed): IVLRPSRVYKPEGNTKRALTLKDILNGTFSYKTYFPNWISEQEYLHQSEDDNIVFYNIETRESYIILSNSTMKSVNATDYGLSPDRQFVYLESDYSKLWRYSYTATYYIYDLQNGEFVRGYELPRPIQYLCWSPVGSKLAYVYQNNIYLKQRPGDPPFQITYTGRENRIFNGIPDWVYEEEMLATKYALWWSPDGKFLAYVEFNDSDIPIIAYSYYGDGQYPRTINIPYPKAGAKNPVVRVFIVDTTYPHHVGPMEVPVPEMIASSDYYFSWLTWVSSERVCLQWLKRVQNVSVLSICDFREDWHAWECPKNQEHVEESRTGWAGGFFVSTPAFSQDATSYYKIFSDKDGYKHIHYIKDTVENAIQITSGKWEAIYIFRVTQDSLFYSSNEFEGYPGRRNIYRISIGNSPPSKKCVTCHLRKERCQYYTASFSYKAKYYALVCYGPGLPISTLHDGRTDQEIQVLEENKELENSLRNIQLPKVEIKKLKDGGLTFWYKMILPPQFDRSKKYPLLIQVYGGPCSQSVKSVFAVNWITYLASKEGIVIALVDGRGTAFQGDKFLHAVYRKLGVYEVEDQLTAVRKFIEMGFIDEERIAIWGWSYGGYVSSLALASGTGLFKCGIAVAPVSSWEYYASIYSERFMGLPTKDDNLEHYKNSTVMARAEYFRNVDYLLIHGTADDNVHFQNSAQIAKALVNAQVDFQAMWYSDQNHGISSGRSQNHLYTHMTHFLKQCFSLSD
Prolyl Oligopeptidase (hPREP), sequence (P48147 whole entry): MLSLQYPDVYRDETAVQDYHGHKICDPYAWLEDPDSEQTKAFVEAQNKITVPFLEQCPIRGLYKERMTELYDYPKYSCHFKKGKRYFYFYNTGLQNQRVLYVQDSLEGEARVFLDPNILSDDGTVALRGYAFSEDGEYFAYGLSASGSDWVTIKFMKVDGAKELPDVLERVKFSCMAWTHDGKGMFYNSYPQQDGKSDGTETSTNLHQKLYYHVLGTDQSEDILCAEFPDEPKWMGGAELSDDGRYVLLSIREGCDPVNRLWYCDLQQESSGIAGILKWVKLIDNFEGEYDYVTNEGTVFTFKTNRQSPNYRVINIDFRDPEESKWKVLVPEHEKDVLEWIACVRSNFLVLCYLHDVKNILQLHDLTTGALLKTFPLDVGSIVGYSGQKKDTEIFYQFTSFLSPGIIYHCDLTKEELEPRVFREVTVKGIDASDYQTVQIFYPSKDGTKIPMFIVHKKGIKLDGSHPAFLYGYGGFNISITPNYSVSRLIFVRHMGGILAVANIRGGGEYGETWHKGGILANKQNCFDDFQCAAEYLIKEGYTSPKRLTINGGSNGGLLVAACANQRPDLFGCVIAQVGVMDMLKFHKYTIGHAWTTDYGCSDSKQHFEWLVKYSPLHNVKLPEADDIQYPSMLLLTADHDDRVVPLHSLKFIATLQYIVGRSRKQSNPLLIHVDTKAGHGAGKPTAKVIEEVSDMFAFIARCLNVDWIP
human Fibroblast activation protein alpha (hFAP), sequence (Q12884 38-760): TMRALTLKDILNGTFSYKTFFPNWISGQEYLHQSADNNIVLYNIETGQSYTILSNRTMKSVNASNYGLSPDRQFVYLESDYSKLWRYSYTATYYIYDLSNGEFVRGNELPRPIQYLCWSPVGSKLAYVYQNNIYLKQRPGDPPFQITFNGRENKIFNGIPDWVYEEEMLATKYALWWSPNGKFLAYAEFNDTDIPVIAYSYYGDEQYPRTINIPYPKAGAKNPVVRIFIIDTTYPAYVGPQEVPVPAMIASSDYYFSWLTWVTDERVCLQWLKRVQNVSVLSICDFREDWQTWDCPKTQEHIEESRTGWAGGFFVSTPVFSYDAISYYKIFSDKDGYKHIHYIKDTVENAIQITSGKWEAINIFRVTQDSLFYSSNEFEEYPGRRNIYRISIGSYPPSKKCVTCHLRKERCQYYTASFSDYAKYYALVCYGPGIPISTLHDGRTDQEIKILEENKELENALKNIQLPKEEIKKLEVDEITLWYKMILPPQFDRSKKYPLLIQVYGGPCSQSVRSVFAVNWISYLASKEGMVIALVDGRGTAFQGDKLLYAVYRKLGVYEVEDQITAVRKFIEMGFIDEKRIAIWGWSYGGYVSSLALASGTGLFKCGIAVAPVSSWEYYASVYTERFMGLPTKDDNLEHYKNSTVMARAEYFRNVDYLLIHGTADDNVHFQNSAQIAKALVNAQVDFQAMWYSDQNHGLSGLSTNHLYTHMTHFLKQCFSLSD
hFAP, sequence (Q12884 38-760): as above

Row | IC50 [1] | IC50 [2] | solubility (Kinetic solubility) | rHeps CLint (Rat Hepatocytes (rHep)) | Papp A→B [3] | Papp B→A [3] | efflux ratio [3] | IC50 [4] | IC50 (hFAP) | Papp [5] | hHep CLint (Human Hepatocytes (hHep)) | Compound
1 | 3 nM | 31000 nM | > 1000 µM | <2 μL/min/1E6 | 24 ×10⁻⁶ cm/s | 19 ×10⁻⁶ cm/s | 0.8 | 0.48 nM | < 1.6 nM | 60 ×10⁻⁶ cm/s | <1 μL/min/1E6 | Cc1ccc2c(C(=O)NCC(=O)N3[C@H](C#N)C[C@@H]4C[C@@H]43)ccnc2c1 [Example 20, N-(2-((1S,3S,5S)-3-Cyano-2-azabicyclo[3.1.0]hexan-2-yl)-2-oxoethyl)-7-methylquinoline-4-carboxamide]
2 | 36 nM | > 50000 nM | 570 µM (≈ 220 µg/mL) | 2.6 μL/min/1E6 | 2.8 ×10⁻⁶ cm/s | 28 ×10⁻⁶ cm/s | 10 | 0.15 nM | 0.49 nM | 9.3 ×10⁻⁶ cm/s | <1 μL/min/1E6 | N#C[C@@H]1C[C@@H]2C[C@@H]2N1C(=O)CNC(=O)c1ccnc2cc(C3(C#N)CC3)ccc12 [Example 40, N-(2-((1S,3S,5S)-3-Cyano-2-azabicyclo[3.1.0]hexan-2-yl)-2-oxoethyl)-7-(1-cyanocyclopropyl)quinoline-4-carboxamide]
